How the values were obtained:
[1] = test system: human acute monocytic leukemia cell line MV-4-11; assay: Assay 2: cell proliferation assay (ATP quantitation, CellTiter-Glo), MV-4-11; type: cell-based; settings: MV-4-11 cells
How it was run: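 MV-4-11 cells, 1.67×10^4 per well in medium with 10% FBS, were exposed to compound for 72 h at 37° C., 5% CO2; HL-60 cells served as toxicity control. Proliferation read as ATP content by CellTiter-Glo luminescence.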

[2] = target: T1, biotinylated wild-type menin and MLL-AF9 fusion protein (menin/MLL binding) (Homo sapiens, UniProt O00255); assay: Assay 1: menin/MLL binding AlphaLISA assay, wild-type menin; settings: Table 30; column head does not say wild-type or mutated menin
T1 construct: made in house; host or cells: menin: E. coli; MLL-AF9-FLAG: HEK293 cells, used as cleared lysate
T1 sequence (O00255 1-610): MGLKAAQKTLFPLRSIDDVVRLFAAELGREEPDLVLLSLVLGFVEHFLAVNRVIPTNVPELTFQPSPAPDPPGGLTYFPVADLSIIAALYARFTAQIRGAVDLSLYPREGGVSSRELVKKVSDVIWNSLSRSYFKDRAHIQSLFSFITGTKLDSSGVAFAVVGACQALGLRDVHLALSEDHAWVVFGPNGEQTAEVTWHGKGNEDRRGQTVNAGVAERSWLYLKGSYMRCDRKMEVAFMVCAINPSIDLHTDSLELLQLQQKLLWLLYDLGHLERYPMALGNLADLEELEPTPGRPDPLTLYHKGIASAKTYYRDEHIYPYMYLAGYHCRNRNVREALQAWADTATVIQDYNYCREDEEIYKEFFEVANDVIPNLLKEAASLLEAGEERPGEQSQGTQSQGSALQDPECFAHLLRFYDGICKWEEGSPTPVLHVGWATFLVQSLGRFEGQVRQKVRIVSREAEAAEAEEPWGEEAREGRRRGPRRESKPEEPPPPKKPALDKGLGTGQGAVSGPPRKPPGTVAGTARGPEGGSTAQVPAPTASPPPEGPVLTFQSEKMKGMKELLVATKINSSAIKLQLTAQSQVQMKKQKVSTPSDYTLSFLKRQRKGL
How it was run: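 Compound was preincubated 30 min at room temperature with biotinylated menin (5 nM) and MLL-AF9-FLAG lysate from HEK293 cells, pH 7.4 buffer with 5% DMSO and DTT. Bead-based Alpha signal after 60 min with streptavidin donor and anti-FLAG acceptor beads; four-parameter logistic fit gave IC50.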

Row | SMILES | EC50 ([1]; 72 h) | IC50 [2] | EC50 ([1]; Homo sapiens, MV4-11, 72 h)
1 | CC(C)N(C(=O)c1cc(F)ccc1Oc1cncnc1N1CCC2(CCN(Cc3ccc4c(c3)[nH]c(=O)n4CCO)C2)C1)C(C)C (single isomer, unassigned) [Example 3B, 5-fluoro-2-((4-(7-((1-(2-hydroxyethyl)-2-oxo-2,3-dihydro-1H-benzo[d]imidazol-5-yl)methyl)-2,7-diazaspiro[4.4]nonan-2-yl)pyrimidin-5-yl)oxy)-N,N-diisopropylbenzamide] | < 100 nM | < 100 nM | 
2 | CC(C)c1ncncc1-c1cc(F)ccc1Oc1cncnc1N1CC2(CC(NCc3ccc(C#N)cc3)C2)C1 [Example 152, 4-(((2-(5-(4-fluoro-2-(4-isopropylpyrimidin-5-yl)phenoxy)pyrimidin-4-yl)-2-azaspiro[3.3]heptan-6-yl)amino)methyl) benzonitrile] |  | < 100 nM | < 100 nM
3 | CCOC(=O)N(C)c1cc(F)ccc1Oc1cncnc1N1CCC2(CCN(Cc3ccc4[nH]c(=O)[nH]c4c3)C2)C1 (stereo not drawn) [Example 164, ethyl (5-fluoro-2-((4-(7-((2-oxo-2,3-dihydro-1H-benzo[d]imidazol-5-yl)methyl)-2,7-diazaspiro[4.4]nonan-2-yl)pyrimidin-5-yl)oxy)phenyl) (methyl)carbamate] |  | < 100 nM | 100 to 1000 nM
4 | CC(C)N(C(=O)c1cc(F)ccc1Nc1cncnc1N1CCC2(CC1)CN(C1CCC(NS(C)(=O)=O)CC1)C2)C(C)C (single isomer, unassigned) [Example 248B, 5-fluoro-N,N-diisopropyl-2-((4-(2-(4-(methylsulfonamido)cyclohexyl)-2,7-diazaspiro[3.5]nonan-7-yl)pyrimidin-5-yl)amino) benzamide] | 100 to 1000 nM | < 100 nM | 
5 | CC(C)c1ccccc1-c1cc(F)ccc1Oc1cncnc1N1CCC2(CCN(Cc3ccc4[nH]c(=O)[nH]c4c3)C2)C1 (stereo not drawn) [Example 41, 5-((7-(5-((5-fluoro-2′-isopropyl-[1,1′-biphenyl]-2-yl)oxy)pyrimidin-4-yl)-2,7-diazaspiro[4.4]nonan-2-yl)methyl)-1H-benzo[d]imidazol-2(3H)-one] |  | < 100 nM | < 100 nM
6 | CC(C)N(C(=O)c1cc(F)ccc1Oc1cncnc1N1CC2(CCN(C(=O)Cc3ccc(C#N)cc3)C2)C1)C(C)C [Example 113, 2-((4-(6-(2-(4-cyanophenyl)acetyl)-2,6-diazaspiro[3.4]octan-2-yl)pyrimidin-5-yl)oxy)-5-fluoro-N,N-diisopropylbenzamide] |  | < 100 nM | < 100 nM
7 | CCN(C(=O)C(C)C)c1cc(F)ccc1Oc1cncnc1N1CCC2(CCN(Cc3ccc4[nH]c(=O)[nH]c4c3)C2)C1 (stereo not drawn) [Example 186, N-ethyl-N-(5-fluoro-2-((4-(7-((2-oxo-2,3-dihydro-1H-benzo[d]imidazol-5-yl)methyl)-2,7-diazaspiro[4.4]nonan-2-yl)pyrimidin-5-yl)oxy)phenyl) isobutyramide] |  | < 100 nM | < 100 nM
8 | CCN(C(=O)OC)c1cc(F)ccc1Oc1cncnc1N1CCC2(CCN(Cc3ccc4[nH]c(=O)[nH]c4c3)C2)C1 (stereo not drawn) [Example 91, methyl ethyl(5-fluoro-2-((4-(7-((2-oxo-2,3-dihydro-1H-benzo[d]imidazol-5-yl)methyl)-2,7-diazaspiro [4.4]nonan-2-yl)pyrimidin-5-yl)oxy)phenyl) carbamate] |  | < 100 nM | < 100 nM
9 | CC(C)n1nccc1-c1cc(F)ccc1Oc1cncnc1N1CC2(CC(NCc3ccc(C#N)cc3)CO2)C1 (stereo not drawn) [Example 233, 4-(((2-(5-(4-fluoro-2-(1-isopropyl-1H-pyrazol-5-yl)phenoxy)pyrimidin-4-yl)-5-oxa-2-azaspiro[3.4]octan-7-yl)amino)methyl) benzonitrile] |  | < 100 nM | 100 to 1000 nM
10 | CC(C)c1ccccc1-c1cc(F)ccc1Oc1cncnc1N1CC2(CN(CC3CCOCC3)C2)C1 [Example 237A, 2-(5-((5-fluoro-2′-isopropyl-[1,1′-biphenyl]-2-yl)oxy)pyrimidin-4-yl)-6-((tetrahydro-2H-pyran-4-yl)methyl)-2,6-diazaspiro[3.3] heptane] |  | < 100 nM | < 100 nM
11 | CCN(C(=O)C(C)C)c1cc(F)ccc1Oc1cncnc1N1CC2(CN(C(=O)Cc3ccc(S(C)(=O)=O)cc3)C2)C1 [Example 119, N-ethyl-N-(5-fluoro-2-((4-(6-(2-(4-(methylsulfonyl)phenyl)acetyl)-2,6-diazaspiro[3.3]heptan-2-yl)pyrimidin-5-yl)oxy)phenyl)isobutyramide] |  | < 100 nM | 100 to 1000 nM
12 | CC(C)N(C(=O)c1cc(F)ccc1Nc1cncnc1N1CCC2(CC1)CN(CC(C)(C)O)C2)C(C)C [Example 16, 5-fluoro-2-((4-(2-(2-hydroxy-2-methylpropyl)-2,7-diazaspiro[3.5]nonan-7-yl)pyrimidin-5-yl)amino)-N,N-diisopropylbenzamide] |  | < 100 nM | 100 to 1000 nM
13 | CC(C)c1ncncc1-c1cc(F)ccc1Oc1cncnc1N1CC2(CC(NCC34CC(C#N)(C3)C4)C2)C1 [Example 118, 3-(((2-(5-(4-fluoro-2-(4-isopropylpyrimidin-5-yl)phenoxy)pyrimidin-4-yl)-2-azaspiro[3.3]heptan-6-yl)amino)methyl)bi-cyclo[1.1.1]pentane-1-carbonitrile] |  | < 100 nM | 100 to 1000 nM
14 | CC(C)N(C(=O)c1cc(F)ccc1Oc1cncnc1N1CC2(CN(CC[C@H]3CC[C@H](NC(=O)OC(C)(C)C)CC3)C2)C1)C(C)C [Example 115, tert-butyl ((1r,4r)-4-(2-(6-(5-(2-(diisopropylcarbamoyl)-4-fluorophenoxy)pyrimidin-4-yl)-2,6-diazaspiro[3.3]heptan-2-yl)ethyl)cyclohexyl) carbamate] |  | < 100 nM | < 100 nM
15 | CC(C)N(C(=O)c1cc(F)ccc1Oc1cncnc1N1CC2(CCN(C[C@H]3CC[C@@H](NS(C)(=O)=O)CC3)CC2)C1)C(C)C [Example 6B, 5-fluoro-N,N-diisopropyl-2-((4-(7-(((1s,4s)-4-(methylsulfonamido)cyclohexyl)methyl)-2,7-diazaspiro[3.5]nonan-2-yl)pyrimidin-5-yl)oxy)benzamide] |  | < 100 nM | < 100 nM
16 | NC(c1cc(F)ccc1Oc1cncnc1N1CCC2(CCN(Cc3ccc4[nH]c(=O)[nH]c4c3)C2)C1)C1CCCC1 (stereo not drawn) [Example 7, 5-((7-(5-(2-(amino(cyclopentyl)methyl)-4-fluorophenoxy)pyrimidin-4-yl)-2,7-diazaspiro[4.4]nonan-2-yl)methyl)-1,3-dihydro-2H-benzo[d]imidazol-2-one] |  | < 100 nM | 100 to 1000 nM
17 | CC(C)N(C(=O)c1cc(F)ccc1Oc1cncnc1N1CC2(CCN(CC3CCC(O)CC3)C2)C1)C(C)C (stereo not drawn) [Example 99, 5-fluoro-2-((4-(6-((4-hydroxycyclohexyl)methyl)-2,6-diazaspiro[3.4]octan-2-yl)pyrimidin-5-yl)oxy)-N,N-diisopropylbenzamide] |  | < 100 nM | 100 to 1000 nM
18 | CC1CCC(C)N1C(=O)c1cc(F)ccc1Oc1cncnc1N1CCC2(CCN(Cc3ccc4[nH]c(=O)[nH]c4c3)C2)C1 (stereo not drawn) [Example 153, 5-((7-(5-(2-(2,5-dimethylpyrrolidine-1-carbonyl)-4-fluorophenoxy)pyrimidin-4-yl)-2,7-diazaspiro[4.4]nonan-2-yl)methyl)-1,3-dihydro-2H-benzo[d]imidazol-2-one] |  | < 100 nM | 100 to 1000 nM
